The values below come from publication PMC3292552, “Post-Translational Regulation and Trafficking of the Granulin-Containing Protease RD21 of Arabidopsis thaliana” (PLoS ONE, 2012).

The structures appear in SMILES notation.

In experiment [1] the target is T1, RD21 (Arabidopsis thaliana, UniProt P43297).
T1 construct: gene RD21A; full-length preproprotein agroinfiltrated in Nicotiana benthamiana, two (pRH628) or three (pRH629) extra C-terminal Ser; crude leaf extract; processed in planta to iRD21/mRD21; mRD21 N-termini DELPE, LPE, GDELPE; also endogenous in Arabidopsis leaf extract
Briefly: competition of DCG-04 labelling; protection of rubisco from degradation. It counts as biochemical. The settings on record: covalent; 20 µM E-64 preincubation, 0.2 µM DCG-04, pH 6, 1 mM DTT; leaf extract.

Experiment [2] addresses T2, RD21 (Arabidopsis thaliana, UniProt P43297, C161A).
T2 construct: gene RD21A; full-length preproprotein agroinfiltrated in Nicotiana benthamiana, two (pRH628) or three (pRH629) extra C-terminal Ser; crude leaf extract; processed in planta to iRD21/mRD21; mRD21 N-termini DELPE, LPE, GDELPE; also endogenous in Arabidopsis leaf extract
Kind of experiment: competition of DCG-04 labelling. It is filed as biochemical. The settings on record: 20 µM E-64 preincubation, 0.2 µM DCG-04, pH 6; catalytic Cys absent; leaf extract.

T2 sequence (P43297 137-462 C161A): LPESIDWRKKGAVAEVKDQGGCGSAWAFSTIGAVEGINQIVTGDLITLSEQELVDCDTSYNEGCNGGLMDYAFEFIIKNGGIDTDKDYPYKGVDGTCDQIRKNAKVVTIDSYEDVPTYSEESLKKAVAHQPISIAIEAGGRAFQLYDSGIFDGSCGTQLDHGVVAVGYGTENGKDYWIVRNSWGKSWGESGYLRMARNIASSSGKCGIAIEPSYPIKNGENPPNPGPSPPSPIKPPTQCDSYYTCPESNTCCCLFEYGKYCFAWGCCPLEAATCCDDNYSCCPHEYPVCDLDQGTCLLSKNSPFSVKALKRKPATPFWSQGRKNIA
T1 sequence (P43297 137-462): as the sequence (P43297 137-462 C161A) above, with A25C counted along it

In the case of `CC(C)C[C@H](NC(=O)[C@H]1O[C@@H]1C(=O)O)C(=O)NCCCCNC(=N)N` [E-64], the “competition of DCG-04 labelling; protection of rubisco from degradation” value in experiment [1] was “the reaction with DCG-04 can be prevented by preincubation with E-64”. Also, in experiment [2], the “competition of DCG-04 labelling” value was “a weak, E-64-competable biotinylation occurs of iRD21”.
